Reference: patent publication US20230365537A1, “POLO LIKE KINASE 4 INHIBITORS” (ORIC Pharmaceuticals, Inc., priority 2021, published 2023)

Experiments:
CHP-134 cells = assay: CHP134 CellTiter-Glo (CTG) Assay; type: cell-based; conditions: Homo sapiens, 5 days, viable cells by CellTiter-Glo
Method: Cells were seeded (200 cells/well) in 384-well plates for 16 hours. On day two, nine serial 1:3 compound dilutions were made in DMSO in a 96-well plate. The compounds were then further diluted into growth media using a BRAVO robot (Agilent, Santa Clara, CA). The diluted compounds were then added to quadruplicate wells in the 384-well cell plate and incubated at 37° C. and 5% CO2. After 5 days, relative numbers of viable cells were measured by luminescence using CellTiter-Glo® (Promega) according to the manufacturer’s instructions and read on a SPARK Multimode Microplate Reader (Tecan, Mannedorf Switzerland). The IC50 calculations for the values reported in Table 2 were carried out using Prism 6.0 software (GraphPad, San Diego).

[1] = target: human recombinant Aurora A (Homo sapiens (Human), UniProt O14965); assay: Aurora A Kinase Biochemical Assay (ADP-Glo); conditions: ratio of Aurora A IC50 to PLK4 IC50 (selectivity)
Chain of human recombinant Aurora A (O14965 whole entry): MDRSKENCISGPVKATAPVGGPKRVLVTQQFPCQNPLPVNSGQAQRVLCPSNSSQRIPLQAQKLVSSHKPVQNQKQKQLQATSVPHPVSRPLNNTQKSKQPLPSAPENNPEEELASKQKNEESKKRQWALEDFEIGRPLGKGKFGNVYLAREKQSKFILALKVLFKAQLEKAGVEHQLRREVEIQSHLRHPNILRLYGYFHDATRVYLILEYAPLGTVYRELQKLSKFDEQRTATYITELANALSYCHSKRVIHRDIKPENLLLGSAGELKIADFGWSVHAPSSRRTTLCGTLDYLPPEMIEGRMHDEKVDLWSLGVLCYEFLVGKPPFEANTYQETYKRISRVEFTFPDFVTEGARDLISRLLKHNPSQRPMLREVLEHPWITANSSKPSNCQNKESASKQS

human recombinant PLK4 = human recombinant PLK4 (Homo sapiens (Human), UniProt O00444); assay: PLK4 Biochemical Assay (ADP-Glo); conditions: 0.5 nM PLK4, 8.0 µM ATP, 4.7 µM MBP, 6 hours at RT
Chain of human recombinant PLK4 (O00444 whole entry): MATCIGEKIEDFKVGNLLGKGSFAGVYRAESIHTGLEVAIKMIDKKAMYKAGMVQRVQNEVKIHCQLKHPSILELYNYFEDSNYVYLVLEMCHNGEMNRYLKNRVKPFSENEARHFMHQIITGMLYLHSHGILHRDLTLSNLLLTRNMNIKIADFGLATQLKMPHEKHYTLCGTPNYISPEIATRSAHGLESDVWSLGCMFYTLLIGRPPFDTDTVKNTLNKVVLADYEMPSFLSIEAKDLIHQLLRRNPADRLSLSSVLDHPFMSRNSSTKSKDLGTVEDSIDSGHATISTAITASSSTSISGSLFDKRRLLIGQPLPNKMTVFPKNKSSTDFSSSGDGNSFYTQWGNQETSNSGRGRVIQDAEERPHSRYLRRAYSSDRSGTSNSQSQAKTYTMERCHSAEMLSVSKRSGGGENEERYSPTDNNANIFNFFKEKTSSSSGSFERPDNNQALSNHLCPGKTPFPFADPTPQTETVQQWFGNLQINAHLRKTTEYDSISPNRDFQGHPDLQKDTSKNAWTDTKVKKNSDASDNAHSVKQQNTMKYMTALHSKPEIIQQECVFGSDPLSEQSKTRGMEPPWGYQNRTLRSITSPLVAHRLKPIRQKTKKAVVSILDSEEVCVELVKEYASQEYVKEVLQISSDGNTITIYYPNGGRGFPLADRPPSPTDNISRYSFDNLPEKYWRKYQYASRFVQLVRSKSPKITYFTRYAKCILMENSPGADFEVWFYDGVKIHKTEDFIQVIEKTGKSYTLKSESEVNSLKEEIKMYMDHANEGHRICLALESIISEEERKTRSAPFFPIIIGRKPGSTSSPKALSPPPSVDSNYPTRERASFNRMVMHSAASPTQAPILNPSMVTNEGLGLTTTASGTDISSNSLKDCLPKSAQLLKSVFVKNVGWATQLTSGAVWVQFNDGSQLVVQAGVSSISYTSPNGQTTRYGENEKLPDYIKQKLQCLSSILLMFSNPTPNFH
Method in brief: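 Luminescent ADP-Glo detection quantified ADP production, with ATP depletion for 40 min and detection for 30 min at room temperature. Compound and PLK4 (1.0 nM stock addition) were preincubated 15 min in HEPES pH 7.5 buffer containing MgCl2, EGTA, DTT, Brij-35 and BSA. IC50 values were obtained by four-parameter nonlinear regression.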

[2] = target: human recombinant Aurora B (Homo sapiens (Human), UniProt Q96GD4); assay: Aurora B Kinase Biochemical Assay (ADP-Glo); conditions: ratio of Aurora B IC50 to PLK4 IC50 (selectivity)
Chain of human recombinant Aurora B (Q96GD4 whole entry): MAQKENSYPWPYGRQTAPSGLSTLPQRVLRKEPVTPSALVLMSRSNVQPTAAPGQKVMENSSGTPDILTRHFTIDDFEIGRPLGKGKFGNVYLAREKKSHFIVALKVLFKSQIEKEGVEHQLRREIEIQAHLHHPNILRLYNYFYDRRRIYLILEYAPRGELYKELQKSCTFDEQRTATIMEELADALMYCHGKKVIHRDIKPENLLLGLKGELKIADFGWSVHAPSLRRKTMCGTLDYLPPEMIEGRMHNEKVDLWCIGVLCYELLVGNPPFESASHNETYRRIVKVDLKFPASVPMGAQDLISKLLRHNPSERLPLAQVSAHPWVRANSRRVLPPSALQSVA
Method in brief: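 IC50 derived by four-parameter nonlinear fit of ADP-Glo luminescence (ADP produced). Compound was preincubated 15 min at RT with 20 nM recombinant human Aurora B, in 50 mM HEPES pH 7.5, 10 mM MgCl2, 1 mM EGTA, 1 mM DTT, 0.01% Brij-35/BSA.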

| [Aurora A IC50 (nM)]/[PLK4 IC50 (nM)] [1] | IC50 (human recombinant PLK4) [nM] | [Aurora B IC50 (nM)]/[PLK4 IC50 (nM)] [2] | Compound | IC50 (CHP-134 cells; 120 h) [nM] | IC50 (CHP-134 cells; CHP-134, 120 h) [nM] |
| --- | --- | --- | --- | --- | --- |
| 1376.93 | 1.1 | 512.7157 | COc1ccc2c(c1)[C@]1(C[C@H]1c1ccc3c(Nc4nc(C5CC5)nc(N5CCS(=O)(=O)CC5)c4Cl)n[nH]c3c1)C(=O)N2 [Example 70, 4-[5-chloro-2-cyclopropyl-6-({6-[(1R,2S)-5′-methoxy-2′-oxo-1′,2′-dihydrospiro[cyclopropan-1,3′-indol]-2-yl]-1H-indazol-3-yl}amino)pyrimidin-4-y1]-1λ6-thiomorpholine-1,1-dione] |  | 80.3 |
| 3290.277 | 7.04 | 346.7708 | COc1ccc2c(c1)[C@]1(C[C@H]1c1ccc3c(Nc4nc(C)nc(N5CC(O)C5)c4OC)n[nH]c3c1)C(=O)N2 [Example 73, (1R,2S)-2-(3-{[6-(3-hydroxyazetidin-l-yl)-5-methoxy-2-methylpyrimidin-4-yl]amino}-1H-indazol-6-yl)-5′-methoxyspiro[cyclopropane-1,3′-indol]-2′(1′H)-one] |  | 10000 |
| 3304.147 | 0.434 | 535.4839 | COc1ccc2c(c1)[C@]1(C[C@H]1c1ccc3c(Nc4nc(C5CC5)nc(N5CC(O)C5)c4Cl)n[nH]c3c1)C(=O)N2 [Example 76, (1R,2S)-2-(3-{[5-chloro-2-cyclopropyl-6-(3-hydroxyazetidin-1-yl)pyrimidin-4-yl]amino)-1H-indazol-6-yl)-5′-methoxyspiro[cyclopropane-1,3′-indol]-2′(1′H)-one] |  | 93.5 |
| 5660 | 0.35 | 1778.857 | COc1ccc2c(c1)[C@]1(C[C@H]1c1ccc3c(Nc4nc(C(C)C)nc(N5CCS(=O)(=O)CC5)c4Cl)n[nH]c3c1)C(=O)N2 [Example 78, (1R,2S)-2-(3-((5-chloro-6-(1,1-dioxidothiomorpholino)-2-isopropylpyrimidin4-yl)amino)-1H-indazol-6-yl)-5′-methoxyspiro[cyclopropane-1,3′-indolin]-2′-one] |  | 61.4 |
| 908.4004 | 2.24 | 333.3333 | COc1ccc2c(c1)[C@]1(C[C@H]1c1ccc3c(Nc4nc(C(C)C)cnc4OC)n[nH]c3c1)C(=O)N2 [Example 83, (1R,2S)-5′-methoxy-2-(3-{[3-methoxy-6-(propan-2-yl)pyrazin-2-yl]amino}-1H-indazol-6-yl)spiro[cyclopropane-1,3′-indol]-2′(1′H)-one] |  | 277 |
| 39123.63 | 1.28 | 3151.017 | COc1ccc2c(c1)[C@]1(C[C@H]1c1ccc3c(Nc4nc(C(C)C)nc(N5CCS(=O)(=O)CC5)c4OC)n[nH]c3c1)C(=O)N2 [Example 84, (1R,2S)-2-(3-((6-(1,1-dioxidothiomorpholino)-2-isopropyl-5-methoxypyrimidin-4-yl)amino)-1H-indazol-6-yl)-5′-methoxyspiro[cyclopropane-1,3′-indolin]-2′-one] |  | 395 |
| 5554.974 | 1.91 | 3067.539 | COc1ccc2c(c1)[C@]1(C[C@H]1c1ccc3c(Nc4nc(C(C)C)nc(N5CCOCC5)c4OC)n[nH]c3c1)C(=O)N2 [Example 85, (1R,2S)-5′-methoxy-2-(3-{[5-methoxy-6-(morpholin-4-yl)-2-(propan-2-yl)pyrimidin-4-yl]amino}-1H-indazol-6-yl)spiro[cyclopropane-1,3′-indol]-2′(1′H)-one] |  | 107 |

More lines, now with the values behind:

| Compound | [Aurora A IC50 (nM)]/[PLK4 IC50 (nM)] [1] | IC50 (human recombinant PLK4) [nM] | [Aurora B IC50 (nM)]/[PLK4 IC50 (nM)] [2] | IC50 (CHP-134 cells; 120 h) [nM] | IC50 (CHP-134 cells; CHP-134, 120 h) [nM] |
| --- | --- | --- | --- | --- | --- |
| COc1ccc2c(c1)[C@]1(C[C@H]1c1ccc3c(Nc4nc(C#N)nc(N5CCOCC5)c4OC)n[nH]c3c1)C(=O)N2 [Example 61, 5-methoxy-4-({6-[(1R,2S)-5′-methoxy-2′-oxo-1’,2′-dihydrospiro[cyclopropane-1,3′-indol]-2-yl]-1H-indazol-3-yl}amino)-6-(morpholin-4-yl)pyrimidme-2-carbonitrile] | 588.8148 | 9.74 | 955.0539 | 2380 |  |
| COc1ccc2c(c1)[C@]1(C[C@H]1c1ccc3c(Nc4nc(C#N)nc(N5CCS(=O)(=O)CC5)c4OC)n[nH]c3c1)C(=O)N2 [Example 62, 4-(l,l-dioxidothiomorpholino)-5-methoxy-6-((6-((lR,2S)-5′-methoxy-2′-oxospiro[cyclopropane-1,3′-indolin]-2-yl)-1H-indazol-3-yl)amino)pyrimidine-2-carbonitrile] | 540.9225 | 16.9 | 946.7771 |  | 10000 |
| COc1ccc2c(c1)[C@]1(C[C@H]1c1ccc3c(Nc4nc(C)nc(N5C[C@@H](C)O[C@@H](C)C5)c4OC)n[nH]c3c1)C(=O)N2 [Example 67, (1R,2S)-2-[3-({6-[(2R,6S)-2,6-dimethylmorpholin-4-yl]-5-methoxy-2-methylpyrimidin-4-yl}amino)-1H-indazol-6-yl]-5′-methoxyspiro[cyclopropane-1,3′-indol]-2′(1′H)-one] | 4976.155 | 1.34 | 499.9255 |  | 4390 |
| COc1ccc2c(c1)[C@]1(C[C@H]1c1ccc3c(Nc4nc(CCO)nc(N5CCOCC5)c4OC)n[nH]c3c1)C(=O)N2 [Example 68, (1R,2S)-2-(3-{[2-(2-hydroxyethyl)-5-methoxy-6-(morpholin-4-yl)pyrimidin-4-yl]amino}-1H-indazol-6-yl)-5′-methoxyspiro[cyclopropane-1,3′-indol]-2′(1′H)-one] | 4761.518 | 7.38 | 1347.967 |  | 2480 |
| COc1ccc2c(c1)[C@]1(C[C@H]1c1ccc3c(Nc4nc(C5CC5)nc(N5CCS(=O)(=O)CC5)c4OC)n[nH]c3c1)C(=O)N2 [Example 69, 4-[2-cyclopropyl-5-methoxy-6-({6-[(1R,2S)-5′-methoxy-2′-oxo-1’,2′-dihydrospiro[cyclopropane-1,3′-indol]-2-yl]-1H-indazol-3-yl}amino)pyrimidin-4-yl]-1λ6-thiomorpholine-1,1-dione] | 1785.978 | 2.98 | 480.7112 |  | 686 |
| COc1ccc2c(c1)[C@]1(C[C@H]1c1ccc3c(Nc4nc(C)cnc4OC)n[nH]c3c1)C(=O)N2 [Example 71, (1R,2S)-5′-methoxy-2-{3-[(3-methoxy-6-methylpyrazin-2-yl)amino]-1H-indazol-6-yl}spiro[cyclopropane-1,3′-indol]-2′(1′H)-one] | 420.9667 | 3.06 | 38.67 |  | 989 |
| COc1ccc2c(c1)[C@]1(C[C@H]1c1ccc3c(Nc4nc(C)nc(N5CC(O)C5)c4Cl)n[nH]c3c1)C(=O)N2 [Example 72, (1R,2S)-2-(3-{[5-chloro-6-(3-hydroxyazetidin-1-yl)-2-methylpyrimidin-4-yl]amino)-1H-indazol-6-yl)-5′-methoxyspiro[cyclopropane-1,3′-indol]-2′(1′H)-one] | 2006.018 | 0.997 | 405.2156 |  | 42.7 |
| COc1ccc2c(c1)[C@]1(C[C@H]1c1ccc3c(Nc4nc(C5CC5)nc(N5C[C@@H](C)O[C@@H](C)C5)c4OC)n[nH]c3c1)C(=O)N2 [Example 77, (1R,2S)-2-[3-({2-cyclopropyl-6-[(2R,6S)-2,6-dimethylmorpholin-4-yl]-5-methoxypyrimidin-4-yl}amino)-1H-indazol-6-yl]-5′-methoxyspiro[cydopropane-1,3′-indol]-2′(1′H)-one] | 6738.759 | 1.76 | 1577.689 |  | 725 |
| COc1ccc2c(c1)[C@]1(C[C@H]1c1ccc3c(Nc4nc(C5CC5)cnc4OC)n[nH]c3c1)C(=O)N2.O=C(O)C(F)(F)F [Example 80, (1R,2S)-2-{3-[(6-cyclopropyl-3-methorypyrazin-2-yl)amino]-1H-indazol-yl}-5′-metboxyspiro[cyclopropane-1,3′-indol]-2′(1′H)-one] | 346.5116 | 2.37 | 54.12 |  | 294 |
| COc1ccc2c(c1)[C@]1(C[C@H]1c1ccc3c(Nc4nc(C5CC5)nc(N5CC(O)C5)c4OC)n[nH]c3c1)C(=O)N2.O=C(O)C(F)(F)F [Example 81, (1R,2S)-2-(3-{[2-cyclopropyl-6-(3-hydroxyazetidin-1-yl)-5-methoxypyrimidin-4-yl]amino}-1H-indazol-6-yl)-5′-methoxyspiro[cyclopropane-1,3′-indol]-2′(1′H)-one] | 1478.393 | 3.63 | 220.4239 |  | 965 |
